Calls of active or inactive are those of the source. No cut-off for these calls is given here. Starred links: 1 amine or outer side, 2 acyl side, 3 side chain; linkers in the order of their positions; H or OH if unused. Non-standard residues stand in square brackets, D forms with d. Residues, ends and D or L forms follow the SMILES beside them. N(2-mercaptoethyl)Gly = O=C(CN(CCS[*:3])[*:1])[*:2]; hCys = N[C@@H](CCS)C(=O)O; Nphe = O=C(O)CNCc1ccccc1; Nlys = NCCCCNCC(=O)O
Species on record: Bos taurus
Test: Inhibition of bovine trypsin

SMILES | Ka
CC[C@H](C)[C@@H]1NC(=O)[C@@H]2CCCN2C(=O)[C@@H]2CCCN2C(=O)[C@H]([C@@H](C)CC)NC(=O)[C@H](CO)NC(=O)[C@H](CCCCN)NC(=O)[C@H]([C@@H](C)O)NC(=O)[C@H](CS)NC(=O)[C@H](CCCNC(=N)N)NC(=O)CNC(=O)[C@H](CC(=O)O)NC(=O)[C@@H]2CCCN2C(=O)[C@H](Cc2ccccc2)NC(=O)[C@H](CS)NC1=O | 9.9 ×10⁹ /M
CC[C@H](C)[C@@H]1NC(=O)[C@@H]2CCCN2C(=O)[C@@H]2CCCN2C(=O)[C@H]([C@@H](C)CC)NC(=O)[C@H](CO)NC(=O)[C@H](CCCCN)NC(=O)[C@H]([C@@H](C)O)NC(=O)CN(CCS)C(=O)[C@H](CCCNC(=N)N)NC(=O)CNC(=O)[C@H](CC(=O)O)NC(=O)[C@@H]2CCCN2C(=O)[C@H](Cc2ccccc2)NC(=O)CN(CCS)C1=O (cyclo(DGR[N(2-mercaptoethyl)Gly]TKSIPPI[N(2-mercaptoethyl)Gly]FP)) | inactive
CC[C@H](C)[C@@H]1NC(=O)[C@@H]2CCCN2C(=O)[C@@H]2CCCN2C(=O)[C@H]([C@@H](C)CC)NC(=O)[C@H](CO)NC(=O)[C@H](CCCCN)NC(=O)[C@H]([C@@H](C)O)NC(=O)[C@@H]2CSSC[C@H](NC1=O)C(=O)N[C@@H](Cc1ccccc1)C(=O)N1CCC[C@H]1C(=O)N[C@@H](CC(=O)O)C(=O)NCC(=O)N[C@@H](CCCNC(=N)N)C(=O)N2 | 1.1 ×10¹⁰ /M
CC[C@H](C)[C@@H]1NC(=O)[C@@H]2CCCN2C(=O)[C@@H]2CCCN2C(=O)[C@H]([C@@H](C)CC)NC(=O)[C@H](CO)NC(=O)CN(CCCCN)C(=O)[C@H]([C@@H](C)O)NC(=O)CN(CCS)C(=O)[C@H](CCCNC(=N)N)NC(=O)CNC(=O)[C@H](CC(=O)O)NC(=O)[C@@H]2CCCN2C(=O)[C@H](Cc2ccccc2)NC(=O)CN(CCS)C1=O (cyclo(DGR[N(2-mercaptoethyl)Gly]T[Nlys]SIPPI[N(2-mercaptoethyl)Gly]FP)) | inactive

Species on record: Bos taurus
Test: Inhibition of bovine chymotrypsin

SMILES | Ka
CC[C@H](C)[C@@H]1NC(=O)[C@@H]2CCCN2C(=O)[C@@H]2CCCN2C(=O)[C@H]([C@@H](C)CC)NC(=O)[C@H](CO)NC(=O)CN(Cc2ccccc2)C(=O)[C@H]([C@@H](C)O)NC(=O)[C@@H](C(C)(C)S)NC(=O)[C@H](CCCNC(=N)N)NC(=O)CNC(=O)[C@H](CC(=O)O)NC(=O)[C@@H]2CCCN2C(=O)[C@H](Cc2ccccc2)NC(=O)[C@H](CS)NC1=O | 1.15 ×10⁵ /M
CC[C@H](C)[C@@H]1NC(=O)[C@@H]2CCCN2C(=O)[C@@H]2CCCN2C(=O)[C@H]([C@@H](C)CC)NC(=O)[C@H](CO)NC(=O)CN(Cc2ccccc2)C(=O)[C@H]([C@H](C)O)NC(=O)[C@H](CS)NC(=O)[C@H](CCCNC(=N)N)NC(=O)CNC(=O)[C@H](CC(=O)O)NC(=O)[C@@H]2CCCN2C(=O)[C@H](Cc2ccccc2)NC(=O)[C@H](CS)NC1=O | 3.9 ×10⁸ /M
CC[C@H](C)[C@@H]1NC(=O)[C@@H]2CCCN2C(=O)[C@@H]2CCCN2C(=O)[C@H]([C@@H](C)CC)NC(=O)[C@H](CO)NC(=O)[C@H](CCCCN)NC(=O)[C@H]([C@@H](C)O)NC(=O)[C@H](CS)NC(=O)[C@H](CCCNC(=N)N)NC(=O)CNC(=O)[C@H](CC(=O)O)NC(=O)[C@@H]2CCCN2C(=O)[C@H](Cc2ccccc2)NC(=O)[C@H](CS)NC1=O | 4.9 ×10⁶ /M
CC[C@H](C)[C@@H]1NC(=O)[C@@H]2CCCN2C(=O)[C@@H]2CCCN2C(=O)[C@H]([C@@H](C)CC)NC(=O)[C@H](CO)NC(=O)[C@H](CCCCN)NC(=O)[C@H]([C@@H](C)O)NC(=O)[C@@H]2CSSC[C@H](NC1=O)C(=O)N[C@@H](Cc1ccccc1)C(=O)N1CCC[C@H]1C(=O)N[C@@H](CC(=O)O)C(=O)NCC(=O)N[C@@H](CCCNC(=N)N)C(=O)N2 | 5.2 ×10⁶ /M
CC[C@H](C)[C@@H]1NC(=O)[C@@H]2CCCN2C(=O)[C@@H]2CCCN2C(=O)[C@H]([C@@H](C)CC)NC(=O)[C@H](CO)NC(=O)[C@H](Cc2ccccc2)NC(=O)[C@H]([C@@H](C)O)NC(=O)CN(CCS)C(=O)[C@H](CCCNC(=N)N)NC(=O)CNC(=O)[C@H](CC(=O)O)NC(=O)[C@@H]2CCCN2C(=O)[C@H](Cc2ccccc2)NC(=O)[C@H](CS)NC1=O (cyclo(CFPDGR[N(2-mercaptoethyl)Gly]TFSIPPI)) | inactive
CC[C@H](C)[C@@H]1NC(=O)[C@@H]2CCCN2C(=O)[C@@H]2CCCN2C(=O)[C@H]([C@@H](C)CC)NC(=O)[C@H](CO)NC(=O)CN(Cc2ccccc2)C(=O)[C@H]([C@@H](C)O)NC(=O)CN(CCS)C(=O)[C@H](CCCNC(=N)N)NC(=O)CNC(=O)[C@H](CC(=O)O)NC(=O)[C@@H]2CCCN2C(=O)[C@H](Cc2ccccc2)NC(=O)CN(CCS)C1=O (cyclo(DGR[N(2-mercaptoethyl)Gly]T[Nphe]SIPPI[N(2-mercaptoethyl)Gly]FP)) | inactive
CC[C@H](C)[C@@H]1NC(=O)[C@@H]2CCCN2C(=O)[C@@H]2CCCN2C(=O)[C@H]([C@@H](C)CC)NC(=O)[C@H](CO)NC(=O)[C@H](Cc2ccccc2)NC(=O)[C@H]([C@@H](C)O)NC(=O)CN(CCS)C(=O)[C@H](CCCNC(=N)N)NC(=O)CNC(=O)[C@H](CC(=O)O)NC(=O)[C@@H]2CCCN2C(=O)[C@H](Cc2ccccc2)NC(=O)CN(CCS)C1=O (cyclo(DGR[N(2-mercaptoethyl)Gly]TFSIPPI[N(2-mercaptoethyl)Gly]FP)) | inactive
CC[C@H](C)[C@@H]1NC(=O)[C@@H]2CCCN2C(=O)[C@@H]2CCCN2C(=O)[C@H]([C@@H](C)CC)NC(=O)[C@H](CO)NC(=O)CN(Cc2ccccc2)C(=O)[C@H]([C@@H](C)O)NC(=O)[C@@H](C(C)(C)S)NC(=O)[C@H](CCCNC(=N)N)NC(=O)CNC(=O)[C@H](CC(=O)O)NC(=O)[C@@H]2CCCN2C(=O)[C@H](Cc2ccccc2)NC(=O)[C@@H](C(C)(C)S)NC1=O | 3.11 ×10⁵ /M
CC[C@H](C)[C@@H]1NC(=O)[C@@H]2CCCN2C(=O)[C@@H]2CCCN2C(=O)[C@H]([C@@H](C)CC)NC(=O)[C@H](CO)NC(=O)[C@H](Cc2ccccc2)NC(=O)[C@H]([C@@H](C)O)NC(=O)[C@H](CS)NC(=O)[C@H](CCCNC(=N)N)NC(=O)CNC(=O)[C@H](CC(=O)O)NC(=O)[C@@H]2CCCN2C(=O)[C@H](Cc2ccccc2)NC(=O)CN(CCS)C1=O (cyclo(CTFSIPPI[N(2-mercaptoethyl)Gly]FPDGR)) | 4.79 ×10⁸ /M
CC[C@H](C)[C@@H]1NC(=O)[C@@H]2CCCN2C(=O)[C@@H]2CCCN2C(=O)[C@H]([C@@H](C)CC)NC(=O)[C@H](CO)NC(=O)[C@H](Cc2ccccc2)NC(=O)[C@H]([C@@H](C)O)NC(=O)[C@H](CCS)NC(=O)[C@H](CCCNC(=N)N)NC(=O)CNC(=O)[C@H](CC(=O)O)NC(=O)[C@@H]2CCCN2C(=O)[C@H](Cc2ccccc2)NC(=O)[C@H](CCS)NC1=O (cyclo(DGR[hCys]TFSIPPI[hCys]FP)) | 7.56 ×10⁹ /M

— ChEMBL document CHEMBL1287733, “Implication of the disulfide bridge in trypsin inhibitor SFTI-1 in its interaction with serine proteinases” (Bioorg Med Chem, 2010)
